This note sets out measurements from US20100234377A1 (priority 2007, published 2010).

The target in this assay is T1, human Prostaglandin D Synthase (GST2) (Homo sapiens, UniProt O60760).
T1 construct: the open reading frame of human Prostaglandin D Synthase was amplified from cDNA; made in house; host or cells: E. coli TOP10F'
T1 sequence (O60760 whole entry): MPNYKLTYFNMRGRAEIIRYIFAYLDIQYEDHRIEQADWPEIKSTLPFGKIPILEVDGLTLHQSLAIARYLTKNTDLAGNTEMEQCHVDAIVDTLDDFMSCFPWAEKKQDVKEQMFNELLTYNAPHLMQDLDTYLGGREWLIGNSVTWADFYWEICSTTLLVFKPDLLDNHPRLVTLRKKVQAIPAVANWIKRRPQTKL
Description: Homogeneous biochemical assay of human Prostaglandin D Synthase (GST2) based on its glutathion-S-transferase activity (GSH conjugation to monochlorobimane, fluorescence). The conditions noted are these: given beside the compound name in Examples 1 to 167; read-out: Potency Range (GST2 IC50). The text has this: Homogeneous, Biochemical Assay Monitoring the Activity of Human Prostaglandin D Synthase Based on the Glutathion-S-Transferase Activity of the Enzyme
Prostaglandin D2 synthesis by Prostaglandin D synthase (GST2) requires transfer of Glutathion (GSH) to the substrate, Prostaglandin H2. […] Since the Prostaglandin D2 synthesis is absolutely dependent on the GST activity of the enzyme, assays monitoring the GST activity should allow to identify specific inhibitors of Prostaglandin D2 synthetic activity. The assay principle used is based on enzymatic conjugation of GSH to Monochlorobimane (MCB), that becomes fluorescent upon this chemical modification. Therefore, the enzymatic reaction can be monitored by total fluorescence measurement.
In brief, the open reading frame of human Prostaglandin D Synthase was amplified from cDNA using the primer pair:
This construct allows prokaryotic expression of Prostaglandin D Synthase as fusion protein with a N-terminal hexa-histidine tag, referred to as NHis-Prostaglandin D Synthase.
Expression of NHis-Prostaglandin D Synthase was in E. coli TOP10F′ (Invitrogen, Germany, cat. no. C3030-03). […] When the culture had reached a density corresponding to an A600 of 0.6, an equal volume of room temperature LB/ampicillin was added. […] Cells harvested by centrifugation were resuspended in 50 mM tris(hydroxymethyl)aminomethane hydrochloride pH 7.5 (Tris/HCl, Sigma, cat. no. T5941).
Removal of unbound material was with 100 ml lysis buffer. Elution was with 50 ml of 50 mM Tris/HCl pH 7.5, 300 mM imidazol (Sigma, Germany, cat. no. I2399)/HCl pH 7.5). […] Aliquots were shock frozen in liquid nitrogen and stored at −80° C.
All assay components were diluted in reaction buffer, 50 mM MES/KOH (pH 6.1), 0.7 mM GSH (Sigma, G4251), 2 mM MgCl2 (Sigma, M2670), 0.05% Pluronic F127 (Sigma, P2443), and stored on ice prior to use. Compounds were diluted in 90% DMSO yielding final assay concentrations from the picomolar to three digit micromolar range.
Total fluorescent measurement was carried out with excitation and emission wavelength of 390 and 460 nm, respectively (BMG Fluostar Optima).
In the case of `CC(C)NC(=O)N1CCN(c2ccc(NC(=O)N3CCN(C(=O)c4cc(F)ccc4F)CC3)cc2F)CC1` [Compound 55, 4-(2,5-difluorobenzoyl)-N-{3-fluoro-4-[4-(isopropylcarbamoyl)piperazin-1-yl]phenyl}piperazine-1-carboxamide], the IC50 – broadly, the point on the concentration scale where inhibition reaches its midpoint – lay in the range of 101 to 1000 nM.
With `CC(C)(C)C(=O)N1CCN(c2ccc(NC(=O)N3CCN(C(=O)c4cccc(F)c4)CC3)cc2F)CC1` [Compound 56, 4-(3-Fluoro-benzoyl)-piperazine-1-carboxylic acid {4-[4-(2,2-dimethyl-propionyl)-piperazin-1-yl]-3-fluoro-phenyl}-amide], the IC50 fell in the range of 11 to 100 nM.
Next, `CC(C)C(=O)N1CCN(c2ccc(NC(=O)N3CCN(C(=O)c4cccc(F)c4)CC3)cc2F)CC1` [Compound 57, 4-(3-Fluoro-benzoyl)-piperazine-1-carboxylic acid [3-fluoro-4-(4-isobutyryl-piperazin-1-yl)-phenyl]-amide]: 11 to 100 nM.
As for `CC(C)C(=O)N1CCN(c2ccc(NC(=O)N3CCN(C(=O)c4cc(F)ccc4F)CC3)cc2F)CC1` [Compound 58, 4-(2,5-Difluoro-benzoyl)-piperazine-1-carboxylic acid [3-fluoro-4-(4-isobutyryl-piperazin-1-yl)-phenyl]-amide], the IC50 was in the range of 101 to 1000 nM.
In the case of `CC(=O)N1CCN(c2ccc(NC(=O)N3CCN(C(=O)c4cccc(F)c4)CC3)cc2)CC1` [Compound 61], the IC50 fell in the range of 101 to 1000 nM.
As to `Cc1cc(NC(=O)N2CCN(C(=O)c3cccc(F)c3)CC2)no1` [Compound 62, 4-(3-Fluoro-benzoyl)-piperazine-1-carboxylic acid (5-methyl-isoxazol-3-yl)-amide], the IC50 was 101 to 1000 nM.
Take `O=C(Nc1nc2ccccc2[nH]1)N1CCN(C(=O)c2cccc(F)c2)CC1` [Compound 64, 4-(3-Fluoro-benzoyl)-piperazine-1-carboxylic acid (1H-benzoimidazol-2-yl)-amide]: the IC50 lay within 101 to 1000 nM.
For `O=C(Nc1nc2ccccc2s1)N1CCN(C(=O)c2cccc(F)c2)CC1` [Compound 65, 4-(3-Fluoro-benzoyl)-piperazine-1-carboxylic acid benzothiazol-2-ylamide], the IC50 was 11 to 100 nM.
Regarding `O=C(Nc1nc2ccc(F)cc2s1)N1CCN(C(=O)c2cccc(F)c2)CC1` [Compound 66, 4-(3-Fluoro-benzoyl)-piperazine-1-carboxylic acid (6-fluoro-benzothiazol-2-yl)-amide], the IC50 was 11 to 100 nM.
Next, `O=C(Nc1nc2ccc(OC(F)(F)F)cc2s1)N1CCN(C(=O)c2cccc(F)c2)CC1` [Compound 67, 4-(3-Fluoro-benzoyl)-piperazine-1-carboxylic acid (6-trifluoromethoxy-benzothiazol-2-yl)-amide]: 11 to 100 nM.
As to `O=C(Nc1nc2ccc(Br)cc2s1)N1CCN(C(=O)c2cccc(F)c2)CC1` [Compound 68, 4-(3-Fluoro-benzoyl)-piperazine-1-carboxylic acid (6-bromo-benzothiazol-2-yl)-amide], the IC50 lay in the range of 1 to 10 nM.
As for `O=C(Nc1nc(-c2ccccc2)ns1)N1CCN(C(=O)c2cccc(F)c2)CC1` [Compound 70, 4-(3-Fluoro-benzoyl)-piperazine-1-carboxylic acid (3-phenyl-[1,2,4]thiadiazol-5-yl)-amide], the IC50 was in the range of 11 to 100 nM.
For `O=C(Nc1nnc(-c2ccncc2)s1)N1CCN(C(=O)c2cccc(F)c2)CC1` [Compound 71, 4-(3-Fluoro-benzoyl)-piperazine-1-carboxylic acid (5-pyridin-4-yl[1,3,4]thiadiazol-2-yl)-amide] the value was 11 to 100 nM; for `O=C(Nc1nnc(-c2ccccc2)o1)N1CCN(C(=O)c2cccc(F)c2)CC1` [Compound 72, 4-(3-Fluoro-benzoyl)-piperazine-1-carboxylic acid (5-phenyl-[1,3,4]oxadiazol-2-yl)-amide], 11 to 100 nM; for `O=C(Nc1nc(-c2ccccn2)cs1)N1CCN(C(=O)c2cccc(F)c2)CC1` [Compound 73, 4-(3-Fluoro-benzoyl)-piperazine-1-carboxylic acid (4-pyridin-2-yl-thiazol-2-yl)-amide], 11 to 100 nM.
Take `O=C(Nc1nc(-c2cccnc2)cs1)N1CCN(C(=O)c2cccc(F)c2)CC1` [Compound 74, 4-(3-Fluoro-benzoyl)-piperazine-1-carboxylic acid (4-pyridin-3-yl-thiazol-2-yl)-amide]: the IC50 is 11 to 100 nM.
Consider `O=C(Nc1nc(-c2ccncc2)cs1)N1CCN(C(=O)c2cccc(F)c2)CC1` [Compound 75, 4-(3-Fluoro-benzoyl)-piperazine-1-carboxylic acid (4-pyridin-4-yl-thiazol-2-yl)-amide], for which the IC50 fell in the range of 101 to 1000 nM.
Next, `Cc1nc(-c2cccc(NC(=O)N3CCN(C(=O)c4cccc(F)c4)CC3)c2)cs1` [Compound 77, 4-(3-Fluoro-benzoyl)-piperazine-1-carboxylic acid [3-(2-methyl-thiazol-4-yl)-phenyl]-amide]: 101 to 1000 nM; `Cc1nccc(-c2cccc(NC(=O)N3CCN(C(=O)c4cccc(F)c4)CC3)c2)n1` [Compound 78, 4-(3-Fluoro-benzoyl)-piperazine-1-carboxylic acid [3-(2-methyl-pyrimidin-4-yl)-phenyl]-amide]: 11 to 100 nM.
As to `Cc1cc2nc(NC(=O)N3CCN(C(=O)c4cccc(F)c4)CC3)sc2cc1C` [Compound 79, 4-(3-Fluoro-benzoyl)-piperazine-1-carboxylic acid (5,6-dimethyl-benzothiazol-2-yl)-amide], the IC50 lay in the range of 1 to 10 nM.
For `Cc1ccc2nc(NC(=O)N3CCN(C(=O)c4cccc(F)c4)CC3)sc2c1` [Compound 80, 4-(3-Fluoro-benzoyl)-piperazine-1-carboxylic acid (6-methyl-benzothiazol-2-yl)-amide], the IC50 was 1 to 10 nM.
Consider `COc1ccc2nc(NC(=O)N3CCN(C(=O)c4cccc(F)c4)CC3)sc2c1` [Compound 81, 4-(3-Fluoro-benzoyl)-piperazine-1-carboxylic acid (6-methoxy-benzothiazol-2-yl)-amide], for which the IC50 is 1 to 10 nM.
For `O=C(Nc1nc2ccc(Cl)cc2s1)N1CCN(C(=O)c2cccc(F)c2)CC1` [Compound 82, 4-(3-Fluoro-benzoyl)-piperazine-1-carboxylic acid (6-chloro-benzothiazol-2-yl)-amide] the value was 1 to 10 nM; for `CCOC(=O)c1ccc2nc(NC(=O)N3CCN(C(=O)c4cccc(F)c4)CC3)sc2c1` [Compound 83, 2-{[4-(3-Fluoro-benzoyl)-piperazine-1-carbonyl]-amino}-benzothiazole-6-carboxylic acid ethyl ester], 11 to 100 nM.
For `CC(=O)Nc1ccc2nc(NC(=O)N3CCN(C(=O)c4cccc(F)c4)CC3)sc2c1` [Compound 84, 4-(3-Fluoro-benzoyl)-piperazine-1-carboxylic acid (6-acetylamino-benzothiazol-2-yl)-amide] the value was 11 to 100 nM; for `N#Cc1cc(NC(=O)N2CCN(C(=O)c3cccc(F)c3)CC2)ccc1F` [Compound 85, 4-(3-Fluoro-benzoyl)-piperazine-1-carboxylic acid (3-cyano-4-fluoro-phenyl)-amide], 101 to 1000 nM.
For `O=C(Nc1cccc(-c2ccncc2)c1)N1CCN(C(=O)c2cccc(F)c2)CC1` [Compound 86, 4-(3-Fluoro-benzoyl)-piperazine-1-carboxylic acid (3-pyridin-4-yl-phenyl)-amide] the value was 101 to 1000 nM; for `O=C(Nc1cccc(-c2cccnc2)c1)N1CCN(C(=O)c2cccc(F)c2)CC1` [Compound 87, 4-(3-Fluoro-benzoyl)-piperazine-1-carboxylic acid (3-pyridin-3-yl-phenyl)-amide], 101 to 1000 nM; for `O=C(Nc1ccc(Br)c(F)c1)N1CCN(C(=O)c2cccc(F)c2)CC1` [Compound 88, 4-(3-Fluoro-benzoyl)-piperazine-1-carboxylic acid (4-bromo-3-fluoro-phenyl)-amide], 11 to 100 nM.
Regarding `O=C(Nc1ccc(-c2cc[nH]n2)cc1)N1CCN(C(=O)c2cccc(F)c2)CC1` [Compound 89, 4-(3-Fluoro-benzoyl)-piperazine-1-carboxylic acid [4-(1H-pyrazol-3-yl)-phenyl]-amide], the half-maximal inhibitory concentration (IC50) was 11 to 100 nM.
For the molecule `Cc1nc(-c2ccc(NC(=O)N3CCN(C(=O)c4cccc(F)c4)CC3)cc2)cs1` [Compound 90, 4-(3-Fluoro-benzoyl)-piperazine-1-carboxylic acid [4-(2-methyl-thiazol-4-yl)-phenyl]-amide], the IC50 is 11 to 100 nM.
For the molecule `O=C(Nc1ccc(S(=O)(=O)N2CCOCC2)cc1)N1CCN(C(=O)c2cccc(F)c2)CC1` [Compound 91, 4-(3-Fluoro-benzoyl)-piperazine-1-carboxylic acid [4-(morpholine-4-sulfonyl)-phenyl]-amide], the IC50 lay in the range of 11 to 100 nM.
